Experimental data as given in PMC3828334, “Tumor Cell Death Mediated by Peptides That Recognize Branched Intermediates of DNA Replication and Repair” (PLoS ONE, 2013).
Where “and” joins values, the source holds several entries; their conditions need not be identical. Identical values can stand only once. Positions of bridges follow the written chain, without caps; N, C: chain ends. Non-standard residues stand in square brackets, D forms with d. Residues, ends and D or L forms follow the SMILES beside them. Chains are numbered I, II in the order given.

Experiments:
Du145 cells = assay type: cell-based; details: 24 h
PPC-1 cells = assay: MTT assay of cell viability, PPC-1; assay type: cell-based; details: 48 h
DuPro-1 cells = assay type: cell-based; details: MTT, DuPro-1 cells, 48 h
PC3 cells [1] = assay: Live/Dead assay by flow cytometry, PC3; assay type: cell-based; details: ± standard error, at least 4 replicates
Experimental: PC3 or HeLa cells were seeded at 400,000 or 500,000 cells per well respectively in 6-well tissue culture plates (BD Falcon) and allowed to attach overnight at 37°C with 5% CO2. The cells were incubated with different concentrations of d-wrwycr for 24 or 48 h respectively before the cells were lifted off from the plate. Cell pellets were resuspended in 200 µl of dye […] protocol (Live/dead cytotoxicity kit for mammalian cells, Invitrogen and reference). Data were collected in BDFacs Canto and analyzed using FACSDiva software (Becton-Dickenson).

HeLa cells = assay: Live/Dead assay by flow cytometry, HeLa; assay type: cell-based; details: ± standard error, at least 4 replicates
Experimental: PC3 or HeLa cells were seeded at 400,000 or 500,000 cells per well respectively in 6-well tissue culture plates (BD Falcon) and allowed to attach overnight at 37°C with 5% CO2. The cells were incubated with different concentrations of d-wrwycr for 24 or 48 h respectively before the cells were lifted off from the plate. Cell pellets were resuspended in 200 µl of dye solution containing either cell-permeable calcein AM and/or cell-impermeant ethidium homodimer according to the manufacturer's protocol (Live/dead cytotoxicity kit for mammalian cells, Invitrogen and reference). Data were collected in BDFacs Canto and analyzed using FACSDiva software (Becton-Dickenson).

caspase-3 in PC3 cells = assay: Caspase-3 assay (Ac-DEVD-AFC cleavage); assay type: cell-based; details: PC3, 50–200 µM, 12–48 h
Experimental: 400,000 PC3 cells were plated in a 6-well plate (BD Falcon) at a concentration of 200,000 cells/ml and were allowed to attach overnight at 37°C with 5% CO2 and treated with 50–200 µM wrwycr for 12, 24 or 48 h. The wrwycr-treated cell lysates were incubated with Ac-DEVD (Asp-Glu-Val-Asp)-AFC, a caspase-3 substrate, for 1 h. Activated caspase-3 will cleave between the DEVD and AFC, releasing latter, a fluorogenic compound that can be excited at 400 nm and the resulting emission can be read at 505 nm by the Spectra Max Gemini XS fluorometer plate reader using Softmax Pro version 3.1.2 software. The total protein concentration was calculated for each sample by using BioRad protein assay kit. To normalize the fluorescence reading (RFU) for each sample, the reading for each sample was divided by the corresponding protein concentration of the samples.

PC3 cells [2] = assay: TUNEL assay, PC3; assay type: cell-based; details: PC3, 150 µM, 48 h
Experimental: 600,000 PC3 cells or 500,000 HeLa cells were plated in 60-mm dishes or 6-well plates respectively to allow them to attach overnight at 37°C with 5% CO2. PC3 cells were subsequently treated with appropriate treatments for 24, 36 and 48 h while HeLa cells were treated with 1 µl of either the caspase inhibitor z-VAD-fmk or z-FA-fmk (both from Biovision), containing appropriate treatments, for 24 h. The cells were fixed with 4% paraformaldehyde for 30 min and permeabilized with 0.1% Triton X-100 in 0.1% sodium citrate buffer for 3 mins. Labeled dUTP were added along with the terminal deoxynucleotidyl transferase dUTP nick end labeling (TUNEL) (TUNEL kit from Roche) as described in the kit. Samples were analyzed using a Becton Dickinson FACS Canto flow cytometer as specified above.

γH2AX in PC3 cells = assay: γH2AX foci by microscopy and flow cytometry; assay type: cell-based; details: PC3, 200 µM, flow cytometry
Experimental: DAPI (5 μg/ml) was used to stain the nucleus. The stained cells on the coverslips were mounted on the glass slides and observed with a Zeiss inverted microscope with AxioVision 4.8 software and using the 100× magnification. Foci of 53BP1 were counted manually and the average number of foci per cell was calculated. […] They were subsequently treated with either 50-200 μM […] or 50-100 μM […] or 0.5-1 μM doxorubicin or combination treatment for 0, 12, 24, 36 and 48 h. […] Samples were analyzed using a Becton Dickinson FACS Canto flow cytometer at a forward scatter voltage of 25 V, side-scatter voltage of 400 V, and FITC channel at a voltage of 400 V.

[3] = system: U2OS cell lines vs IMR 90 cells; details: cited from earlier work
Description: A major challenge of cancer treatment is drug delivery. The intact cell membrane protects the cellular components from its surroundings, restricting hydrophilic molecules from entering the cell and allowing only small molecules to cross the membrane. The presence of hydrophobic and basic amino acid residues in peptide wrwycr probably helps it cross the cancer cell membrane more efficiently than normal cells, similar to the cell penetrating peptides (CPPs).

N=C(N)NCCC[C@@H](NC(=O)[C@@H](CSSC[C@@H](NC(=O)[C@@H](Cc1ccc(O)cc1)NC(=O)[C@@H](Cc1c[nH]c2ccccc12)NC(=O)[C@@H](CCCNC(=N)N)NC(=O)[C@H](N)Cc1c[nH]c2ccccc12)C(=O)N[C@H](CCCNC(=N)N)C(N)=O)NC(=O)[C@@H](Cc1ccc(O)cc1)NC(=O)[C@@H](Cc1c[nH]c2ccccc12)NC(=O)[C@@H](CCCNC(=N)N)NC(=O)[C@H](N)Cc1c[nH]c2ccccc12)C(N)=O [wrwycr, Trp-Arg-Trp-Tyr-Cys-Arg] (I: H-[dW][dR][dW][dY][dC][dR]-NH2 / II: H-[dW][dR][dW][dY][dC][dR]-NH2; disulfide I:5-II:5; N-terminus assumed)
IC50 (Du145 cells): 150 to 200 µM
IC50 (PPC-1 cells): the same IC50 as the PC3 cell line
IC50 (DuPro-1 cells): the same IC50 as the PC3 cell line
PC3 population %Live (PC3 cells [1]; 100 µM wrwycr, calcein AM): 64.9±2.5%
PC3 population % Dead (PC3 cells [1]; 100 µM wrwycr, propidium iodide permeable): 33.4±2.0%
PC3 population % Dead (PC3 cells [1]; 150 µM wrwycr): 33.8±0.6%
PC3 population %Live (PC3 cells [1]; 150 µM wrwycr): 64.4±0.9%
PC3 population % Dead (PC3 cells [1]; 200 µM wrwycr): 40.6±4.8%
PC3 population %Live (PC3 cells [1]; 200 µM wrwycr): 58% and 57.7±4.7%
Hela population % Dead (HeLa cells; 100 µM wrwycr): 5.4±2.0%
Hela population %Live (HeLa cells; 100 µM wrwycr): 90.4±2.3%
Hela population % Dead (HeLa cells; 150 µM wrwycr): 7.8±2.7%
Hela population %Live (HeLa cells; 150 µM wrwycr): 86.3±2.5%
Hela population % Dead (HeLa cells; 200 µM wrwycr): 12.7±6.0%
Hela population %Live (HeLa cells; 200 µM wrwycr): 79% and 79.3±4.5%
caspase-3 activation compared to DMSO control (caspase-3 in PC3 cells): no significant activation of caspase-3
TUNEL positive cell population (PC3 cells [2]): 65%
γH2AX positive cells (γH2AX in PC3 cells; after 36–48 h): 20–35%
γH2AX positive cells (γH2AX in PC3 cells; between 12–24 h): 2–5%
uptake in U2OS cell lines relative to non-tumor derived IMR 90 cells [3]: 3 ×
